# According to patent EP4415826B1, “SYNTHESIS AND IN VITRO ANTITUMOR ACTIVITIES OF NOVEL THIOAMIDE SUBSTITUTED PIPERAZINYL-1,2,4-TRIAZINES” (Istanbul Medipol Universitesi, priority 2021, dated 2023):
# Experiments:
# Type in all cases: cell-based
# SH-SY5Y neuroblastoma = assay: MTT cell viability assay, SH-SY5Y; conditions: 24 hours incubation; for inhibition at 50 µM: Homo sapiens, SH-SY5Y
# Description: (§1) In the study, […] cell lines were purchased and used: SH-SY5Y(CRL-2266, ATCC, USA), C6 Glioma(CCL-107, ATCC, USA) and HEK293(CRL-1573, ATCC, USA). All cells were cultured and propagated in Dulbecco's Modified Eagle's Medium - high glucose (Cat. No:41966029, Gibco, USA), containing 10% (v/v) Foetal Bovine Serum (Cat. No:10500064, Gibco, USA), […] (10,000 U/mL)(Cat. No:15140122, Gibco, USA).
# (§2) In order to assess the viability of the cells MTT […] assay was applied. Initially cells were seeded in the 96-well plates (VWR- 10062900) at a density of 10,000 cells/well and incubated in a cell culture incubator at 37 °C with 5% CO2 for 24 hours. Then, the cells were incubated with the tested compounds at the concentration of 100µM, 50µM, 25µM and 12.5µM for 24 hours. After completion of incubation in molecules, all media were removed and 50 µl MTT (Gold Biotechnology T-030) solution was added to each well and the plates were incubated for an additional 3 hours, followed by addition of 150 µl of MTT solubilization mixture containing 0.1% Triton X-100 (Cat. No:A4025, Biomatik, USA ) and 4mM HCI (Cat. No:07102, Sigma-Aldrich, Germany) in isopropanol(Cat. No:278475, Sigma-Aldrich, Germany). The solution was slowly mixed for 15 minutes to dissolve the MTT formazan crystals and the absorbance of each well was measured with HIDEX Sense Microplate Reader(Cat. No:425-301, HIDEX, Finland) at the wavelength of 570 nm.
# C6 glioma = assay: MTT cell viability assay, C6; conditions: 24 hours incubation; for inhibition at 50 µM: C6 glioma
# Description: as §1, §2
# HEK293 = assay: MTT cell viability assay, HEK293 healthy cell line; conditions: for inhibition at 50 µM: Homo sapiens, HEK293, 24 hours incubation
# Description: as §1, §2
# U87MG glioblastoma = assay: MTT cell viability assay, U87MG; conditions: 24 hours incubation
# Description: as §2
# MCF7 breast tumor = assay: MTT cell viability assay, MCF7
# Description: as §2
# NIH-3T3 = assay: MTT cell viability assay, NIH-3T3 healthy cell line
# Description: as §2
# [1] = Homo sapiens, MCF7, 24 hours incubation
# [2] = Mus musculus, NIH3T3, 24 hours incubation
Compound,% inhibition (50 uM) SH-SY5Y (SH-SY5Y neuroblastoma),% inhibition (50 uM) C6 (C6 glioma),% inhibition (50 uM) HEK293 (HEK293; 24 hours incubation),IC50 (U87MG glioblastoma),IC50 (MCF7 breast tumor; 24 hours incubation),IC50 (NIH-3T3; 24 hours incubation),inhibition at 50 µM (SH-SY5Y neuroblastoma),inhibition at 50 µM (C6 glioma),inhibition at 50 µM (HEK293),"IC50 (U87MG glioblastoma; Homo sapiens, U-87 MG)",IC50 (MCF7 breast tumor; [1]),IC50 (NIH-3T3; [2])
"N.N.[Cl][Pt][Cl] [Cisplatin, reference compound]",97.80%,79.02%,52.60%,10 µM,3.55 µM,2.05 µM,,,,,,
"CCNC(=S)N1CCN(c2nnc(-c3ccccc3)c(-c3ccccc3)n2)CC1 [Compound 1a, 4-(5,6-diphenyl-1,2,4-triazin-3-yl)-N-ethylpiperazine-1-carbothioamide]",,,,,,,47.3%,37.1%,97.3%,29.7 µM,62.8 µM,33.2 µM
"S=C(Nc1ccccc1)N1CCN(c2nnc(-c3ccccc3)c(-c3ccccc3)n2)CC1 [Compound 1b, 4-(5,6-diphenyl-1,2,4-triazin-3-yl)-N-phenylpiperazine-1-carbothioamide]",,,,,,,84.9%,86.1%,96.1%,46 µM,,42.6 µM
"Cc1ccc(NC(=S)N2CCN(c3nnc(-c4ccccc4)c(-c4ccccc4)n3)CC2)cc1 [Compound 1c, 4-(5,6-diphenyl-1,2,4-triazin-3-yl)-N-(p-tolyl)piperazine-1-carbothioamide]",,,,,,,61.6%,46.8%,92.6%,,73.1 µM,
"COc1ccc(NC(=S)N2CCN(c3nnc(-c4ccccc4)c(-c4ccccc4)n3)CC2)cc1 [Compound 1d, 4-(5,6-diphenyl-1,2,4-triazin-3-yl)-N-(4-methoxyphenyl)piperazine-1-carbothioamide]",,,,,,,68%,93.3%,98%,55 µM,61.6 µM,
"O=[N+]([O-])c1ccc(NC(=S)N2CCN(c3nnc(-c4ccccc4)c(-c4ccccc4)n3)CC2)cc1 [Compound 1e, 4-(5,6-diphenyl-1,2,4-triazin-3-yl)-N-(4-nitrophenyl)piperazine-1-carbothioamide]",,,,,,,21.9%,94.4%,95.9%,,,
"S=C(Nc1ccc(Cl)cc1)N1CCN(c2nnc(-c3ccccc3)c(-c3ccccc3)n2)CC1 [Compound 1f, N-(4-chlorophenyl)-4-(5,6-diphenyl-1,2,4-triazin-3-yl)piperazine-1-carbothioamide]",,,,,,,94.1%,66.6%,73.6%,59.1 µM,,65.3 µM
"COc1ccc(-c2nnc(N3CCN(C(=S)Nc4ccccc4)CC3)nc2-c2ccc(OC)cc2)cc1 [Compound 1g, 4-(5,6-bis(4-methoxyphenyl)-1,2,4-triazin-3-yl)-N-phenylpiperazine-1-carbothioamide]",,,,,,,46.2%,63.7%,97.4%,68.1 µM,91.2 µM,76 µM
"S=C(Nc1ccccc1)N1CCN(c2nnc(-c3ccc(Cl)cc3)c(-c3ccc(Cl)cc3)n2)CC1 [Compound 1h, 4-(5,6-bis(4-chlorophenyl)-1,2,4-triazin-3-yl)-N-phenylpiperazine-1-carbothioamide]",,,,,,,87.9%,77.9%,87.4%,,77.2 µM,40.2 µM
"S=C(Nc1ccc(Cl)cc1)N1CCN(c2nnc(-c3ccc(Cl)cc3)c(-c3ccc(Cl)cc3)n2)CC1 [Compound 1i, 4-(5,6-bis(4-chlorophenyl)-1,2,4-triazin-3-yl)-N-(4-chlorophenyl)piperazine-1-carbothioamide]",,,,,,,83.6%,78.3%,68.4%,98.6 µM,,81.5 µM
